Results as given in US10189836B2, “Therapeutic compounds, compositions and methods of use thereof” (Genentech, Inc., priority 2015, dated 2019).
One block for each compound: values may come before it.

Tests used:
[1] = molecular target: isolated recombinant JAK1 kinase domain (Homo sapiens (Human), UniProt P23458); assay: JAK1 enzyme assay (Caliper LabChip, Ki); format: biochemical; settings: isolated recombinant JAK1 kinase domain, 1.5 nM enzyme, ATP 25 μM
[2] = molecular target: isolated recombinant JAK2 kinase domain (Homo sapiens (Human), UniProt O60674); assay: JAK2 enzyme assay (Caliper LabChip, Ki); format: biochemical; settings: isolated recombinant JAK2 kinase domain, 0.2 nM enzyme, ATP 25 μM
isolated recombinant JAK2 kinase domain, sequence (O60674 849-1124): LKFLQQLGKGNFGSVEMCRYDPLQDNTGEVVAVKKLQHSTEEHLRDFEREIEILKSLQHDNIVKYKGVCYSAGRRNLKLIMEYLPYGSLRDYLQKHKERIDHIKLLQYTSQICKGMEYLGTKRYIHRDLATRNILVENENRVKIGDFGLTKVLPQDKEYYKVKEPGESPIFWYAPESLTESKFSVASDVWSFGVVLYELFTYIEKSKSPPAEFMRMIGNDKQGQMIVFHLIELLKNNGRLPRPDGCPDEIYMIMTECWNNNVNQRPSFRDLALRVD

isolated recombinant JAK1 kinase domain, sequence (P23458 875-1153): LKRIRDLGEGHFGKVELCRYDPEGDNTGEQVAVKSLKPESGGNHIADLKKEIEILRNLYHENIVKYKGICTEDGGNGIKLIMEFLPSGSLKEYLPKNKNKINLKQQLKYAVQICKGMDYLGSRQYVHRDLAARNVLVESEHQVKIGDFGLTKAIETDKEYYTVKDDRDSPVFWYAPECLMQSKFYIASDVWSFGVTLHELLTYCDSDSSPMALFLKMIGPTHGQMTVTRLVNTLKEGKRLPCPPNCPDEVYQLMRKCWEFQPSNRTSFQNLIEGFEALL

Compound: CN1CCN(C(=O)Cn2cc(Nc3nc4c(N5CC6CCC(C5)N6C(=O)N5CC(F)C5)cccn4n3)cn2)CC1 [Example 170, 2-[4-[[8-[8-(3-fluoroazetidine-1-carbonyl)-3,8-diazabicyclo[3.2.1]octan-3-yl]-[1,2,4]triazolo[1,5-a]pyridin-2-yl]amino]pyrazol-1-yl]-1-(4-methylpiperazin-1-yl)ethanone]
Ki [1]: 0.3 nM
Ki [2]: 0.2 nM

Compound: CN1CCN(C(=O)Cn2cc(Nc3nc4c(N5CC6CCCC(C5)N6C(=O)[C@H]5C[C@H](C(F)(F)F)C5)cccn4n3)cn2)CC1 [Example 40, 1-(4-methylpiperazin-1-yl)-2-[4-[[8-[9-[3-(trifluoromethyl)cyclobutanecarbonyl]-3,9-diazabicyclo[3.3.1]nonan-3-yl]-[1,2,4]triazolo[1,5-a]pyridin-2-yl]amino]pyrazol-1-yl]ethanone]
Ki [1]: 0.6 nM
Ki [2]: 0.6 nM

Compound: CC(C(=O)N1CCN(C)CC1)n1cc(Nc2nc3c(N4CC5CCC(C4)N5C(=O)CCC(F)(F)F)cccn3n2)cn1 (centres unmarked) [Example 104, 4,4,4-trifluoro-1-[3-[2-[[1-[1-methyl-2-(4-methylpiperazin-1-yl)-2-oxo-ethyl]pyrazol-4-yl]amino]-[1,2,4]triazolo[1,5-a]pyridin-8-yl]-3,8-diazabicyclo[3.2.1]octan-8-yl]butan-1-one]
Ki [1]: 1.7 nM
Ki [2]: 0.8 nM

Compound: O=C(Cn1cc(Nc2nc3c(N4CC5CCC(C4)N5C(=O)N4CC(C(F)(F)F)C4)cccn3n2)cn1)N1CCN(C2CSC2)CC1 [Example 94, 1-[4-(thietan-3-yl)piperazin-1-yl]-2-[4-[[8-[8-[3-(trifluoromethyl)azetidine-1-carbonyl]-3,8-diazabicyclo[3.2.1]octan-3-yl]-[1,2,4]triazolo[1,5-a]pyridin-2-yl]amino]pyrazol-1-yl]ethanone]
Ki [1]: 0.6 nM
Ki [2]: 0.4 nM

Compound: CN1CCN(C(=O)Cn2cc(Nc3nc4c(N5CC6CCC(C5)N6C(=O)CC5CC5(F)F)cccn4n3)cn2)CC1 (centres unmarked) [Example 16, 2-(2,2-difluorocyclopropyl)-1-[3-[2-[[1-[2-(4-methylpiperazin-1-yl)-2-oxo-ethyl]pyrazol-4-yl]amino]-[1,2,4]triazolo[1,5-a]pyridin-8-yl]-3,8-diazabicyclo[3.2.1]octan-8-yl]ethanone]
Ki [1]: 1 nM
Ki [2]: 1.8 nM

Ki [1]: 4.6 nM
Ki [2]: 11.5 nM
Compound: CN1CCN(C(=O)Cn2cc(Nc3nc4c(N5C[C@H]6CC[C@@H](C5)[C@H]6N(C)CCC(F)(F)F)cccn4n3)cn2)CC1 [Example 127, 1-(4-methylpiperazin-1-yl)-2-[4-[[8-[(1S,5R)-8-[methyl(3,3,3-trifluoropropyl)amino]-3-azabicyclo[3.2.1]octan-3-yl]-[1,2,4]triazolo[1,5-a]pyridin-2-yl]amino]pyrazol-1-yl]ethanone]

Compound: CN1CCN(C(=O)Cn2cc(Nc3nc4c(N5CC6CCC(C5)N6C(=O)C5CCC(F)(F)CC5)cccn4n3)cn2)CC1 [Example 51, 2-[4-[[8-[8-(4,4-difluorocyclohexanecarbonyl)-3,8-diazabicyclo[3.2.1]octan-3-yl]-[1,2,4]triazolo[1,5-a]pyridin-2-yl]amino]pyrazol-1-yl]-1-(4-methylpiperazin-1-yl)ethanone]
Ki [1]: 2 nM
Ki [2]: 4.8 nM

Compound: N#CC1(CNC2CCN(C(=O)Cn3cc(Nc4nc5c(N6CC7CCC(C6)N7C(=O)C6CC(C(F)(F)F)C6)cccn5n4)cn3)CC2)CC1 (centres unmarked) [Example 191, 1-[[[1-[2-[4-[[8-[8-[3-(trifluoromethyl)cyclo-butanecarbonyl]-3,8-diazabicyclo[3.2.1]octan-3-yl]-[1,2,4]triazolo[1,5-a]pyridin-2-yl]amino]pyrazol-1-yl]acetyl]-4-piperidyl]amino]methyl]-cyclopropanecarbonitrile]
Ki [1]: 3.5 nM
Ki [2]: 7.8 nM

Compound: CSCCN1CCN(C(=O)Cn2cc(Nc3nc4c(N5CC6CCC(C5)N6C(=O)C5CC(C(F)(F)F)C5)cccn4n3)cn2)CC1 (centres unmarked) [Example 198, 1-[4-(2-methylsulfanylethyl)-piperazin-1-yl]-2-[4-[[8-[8-[3-(trifluoromethyl)-cyclobutanecarbonyl]-3,8-diazabicyclo[3.2.1]octan-3-yl]-[1,2,4]triazolo[1,5-a]pyridin-2-yl]amino]pyrazol-1-yl]ethanone]
Ki [1]: 0.8 nM
Ki [2]: 2.1 nM

Compound: CC(C)(C#N)CNC1CCN(C(=O)Cn2cc(Nc3nc4c(N5CC6CCC(C5)N6C(=O)N5CC(C(F)(F)F)C5)cccn4n3)cn2)CC1 [Example 131, 2,2-dimethyl-3-[[1-[2-[4-[[8-[8-[3-(trifluoromethyl)azetidine-1-carbonyl]-3,8-diazabicyclo[3.2.1]octan-3-yl]-[1,2,4]triazolo[1,5-a]pyridin-2-yl]amino]pyrazol-1-yl]acetyl]-4-piperidyl]amino]-propanenitrile]
Ki [1]: 1.1 nM
Ki [2]: 0.7 nM

Ki [1]: 0.7 nM
Ki [2]: 1.7 nM
Compound: CN1CCN(C(=O)Cn2cc(Nc3nc4c(N5C[C@H]6CC[C@@H](C5)[C@H]6OCc5ccccc5C#N)cccn4n3)cn2)CC1 [Example 142, 2-[[rac-(1S,5R)-3-[2-[[1-[2-(4-methylpiperazin-1-yl)-2-oxo-ethyl]pyrazol-4-yl]amino]-[1,2,4]triazolo[1,5-a]pyridin-8-yl]-3-azabicyclo[3.2.1]octan-8-yl]oxymethyl]benzonitrile]

Ki [1]: 0.5 nM
Ki [2]: 1.5 nM
Compound: CN1CCN(C(=O)Cn2cc(Nc3nc4c(N5CC6CCC(C5)C6=CC#N)cccn4n3)cn2)CC1 [Example 118, 2-[3-[2-[[1-[2-(4-methylpiperazin-1-yl)-2-oxo-ethyl]pyrazol-4-yl]amino]-[1,2,4]triazolo[1,5-a]pyridin-8-yl]-3-azabicyclo[3.2.1]octan-8-ylidene]acetonitrile]

Compound: CN1CCN(C(=O)Cn2cc(Nc3nc4c(N5CC6CCC(C5)N6S(=O)(=O)Cc5ccc(F)cc5)cccn4n3)cn2)CC1 [Example 160, 2-[4-[[8-[8-[(4-fluorophenyl)methylsulfonyl]-3,8-diazabicyclo[3.2.1]octan-3-yl]-[1,2,4]triazolo[1,5-a]pyridin-2-yl]amino]pyrazol-1-yl]-1-(4-methylpiperazin-1-yl)ethanone]
Ki [1]: 0.6 nM
Ki [2]: 0.9 nM

Ki [1]: 0.6 nM
Ki [2]: 2.3 nM
Compound: CN1CCN(C(=O)Cn2cc(Nc3nc4c(N5C[C@H]6CC[C@@H](C5)[C@H]6OCc5cccc(C#N)c5)cccn4n3)cn2)CC1 [Example 129, 3-[[(1S,5R)-3-[2-[[1-[2-(4-methylpiperazin-1-yl)-2-oxo-ethyl]pyrazol-4-yl]amino]-[1,2,4]triazolo[1,5-a]pyridin-8-yl]-3-azabicyclo[3.2.1]octan-8-yl]oxymethyl]benzonitrile]

Compound: CN1CCN(C(=O)Cn2cc(Nc3nc4c(N5CC6CCC(C5)N6S(=O)(=O)c5cccc(C(F)(F)F)c5)cccn4n3)cn2)CC1 [Example 133, 1-(4-methylpiperazin-1-yl)-2-[4-[[8-[8-(3-(trifluoromethyl)phenyl]sulfonyl-3,8-diazabicyclo[3.2.1]octan-3-yl]-[1,2,4]triazolo[1,5-a]pyridin-2-yl]amino]pyrazol-1-yl]ethanone]
Ki [1]: 0.8 nM
Ki [2]: 1.5 nM

Compound: CN1CCN(C(=O)Cn2cc(Nc3nc4c(N5CC6CCC(C5)N6S(=O)(=O)CCC(F)(F)F)cccn4n3)cn2)CC1 [Example 60, 1-(4-methylpiperazin-1-yl)-2-[4-[[8-[8-(3,3,3-trifluoropropylsulfonyl)-3,8-diazabicyclo[3.2.1]octan-3-yl]-[1,2,4]triazolo[1,5-a]pyridin-2-yl]amino]pyrazol-1-yl]ethanone]
Ki [1]: 0.7 nM
Ki [2]: 1.5 nM

Compound: CSc1cccc(C(=O)N2C3CCC2CN(c2cccn4nc(Nc5cnn(CC(=O)N6CCN(C)CC6)c5)nc24)C3)c1 [Example 100, 1-(4-methylpiperazin-1-yl)-2-[4-[[8-[8-(3-methylsulfanylbenzoyl)-3,8-diazabicyclo[3.2.1]octan-3-yl]-[1,2,4]triazolo[1,5-a]pyridin-2-yl]amino]pyrazol-1-yl]ethanone]
Ki [1]: 1.2 nM
Ki [2]: 4.2 nM

Compound: CN(CC1(C#N)CC1)C1CCN(C(=O)Cn2cc(Nc3nc4c(N5CC6CCC(C5)N6C(=O)C5CC(C(F)(F)F)C5)cccn4n3)cn2)CC1 (centres unmarked) [Example 192, 1-[[methyl-[1-[2-[4-[[8-[8-[3-(trifluoromethyl)cyclo-butanecarbonyl]-3,8-diazabicyclo[3.2.1]octan-3-yl]-[1,2,4]triazolo[1,5-a]alpyridin-2-yl]amino]pyrazol-1-yl]acetyl]-4-piperidyl]amino]methyl]-cyclopropanecarbonitrile]
Ki [1]: 0.9 nM
Ki [2]: 1.1 nM

Compound: CC(C(=O)N1CCN(C)CC1)n1cc(Nc2nc3c(N4CC5CCC(C4)N5C(=O)C4CC(C(F)(F)F)C4)cccn3n2)cn1 (centres unmarked) [Example 126, 1-(4-methylpiperazin-1-yl)-2-[4-[[8-[8-(3-(trifluoromethyl)-cyclobutanecarbonyl]-3,8-diazabicyclo[3.2.1]octan-3-yl]-[1,2,4]triazolo[1,5-a]pyridin-2-yl]amino]pyrazol-1-yl]propan-1-one]
Ki [1]: 2.5 nM
Ki [2]: 1.6 nM

Compound: CN1CCN(C(=O)Cn2cc(Nc3nc4c(N5CC6CCC(C5)N6C(=O)c5ccc(Cl)cc5)cccn4n3)cn2)CC1 [Example 89]
Ki [1]: 3.1 nM
Ki [2]: 13.4 nM

Compound: CSC1CCN(C(=O)N2C3CCC2CN(c2cccn4nc(Nc5cnn(CC(=O)N6CCN(C)CC6)c5)nc24)C3)C1 (centres unmarked) [Example 172, 1-(4-methylpiperazin-1-yl)-2-[4-[[8-[8-(3-methylsulfanylpyrrolidine-1-carbonyl)-3,8-diazabicyclo[3.2.1]octan-3-yl]-[1,2,4]triazolo[1,5-a]pyridin-2-yl]amino]pyrazol-1-yl]ethanone]
Ki [1]: 0.6 nM
Ki [2]: 0.9 nM

Compound: CN1CCN(C(=O)Cn2cc(Nc3nc4c(N5CC6CCC(C5)N6C(=O)C5(C(F)(F)F)CC5)cccn4n3)cn2)CC1 [Example 38, 1-(4-methylpiperazin-1-yl)-2-[4-[[8-[8-[1-(trifluoromethyl)cyclopropanecarbonyl]-3,8-diazabicyclo[3.2.1]octan-3-yl]-[1,2,4]triazolo[1,5-a]pyridin-2-yl]amino]pyrazol-1-yl]ethanone]
Ki [1]: 1.3 nM
Ki [2]: 1.8 nM
